Data published in ChEMBL document CHEMBL1141926, “Synthesis and anthelmintic activity of 7-substituted 3,4a-dimethyl-4a,5a,8a,8b-tetrahydro-6H-pyrrolo[3',4':4,5]furo[3,2-b]pyridine-6,8(7H)-diones” (Bioorg Med Chem Lett, 2005).

Key:
[1] = tested on: Haemonchus contortus; test: In vivo percentage Haemonchus contortus egg reduction in sheep at dose 0.10 mg/kg body weight; assay type: functional; conditions: dose 0.1 mg/kg
[2] = Partition coefficient (logP) (HPLC); assay type: physicochemical; conditions: octanol/water
[3] = tested on: Haemonchus contortus; test: In vivo percentage Haemonchus contortus egg reduction in sheep at dose 0.05 mg/kg body weight; assay type: functional
[4] = tested on: Haemonchus contortus; test: In vivo percentage Haemonchus contortus egg reduction in sheep at dose 0.25 mg/kg body weight; assay type: functional
[5] = tested on: Haemonchus contortus; test: In vivo percentage Haemonchus contortus egg reduction in sheep at dose 0.01 mg/kg body weight; assay type: functional
[6] = tested on: Haemonchus contortus; test: In vivo percentage Haemonchus contortus egg reduction in sheep at dose 20 mg/kg body weight; assay type: functional
[7] = tested on: Haemonchus contortus; test: In vivo percentage Haemonchus contortus egg reduction in sheep at dose 0.25 mg/kg body weight; Range 50-75%; assay type: functional
[8] = tested on: Haemonchus contortus; test: In vivo percentage Haemonchus contortus egg reduction in sheep at dose. 20 mg/kg body weight; assay type: functional, organism-based; design: dose 20 mg/kg; conditions: at 20 mg/kg

Row | logP [2] | Molecule | Reduction [3] | other results
1 | < 0 | CC1=CC2(C)OC3C(=O)N(C)C(=O)C3C2N=C1 (stereo not drawn) |  | Reduction [1]: >=95%
2 | 1.51 | CC1=CC2(C)OC3C(=O)N(Cc4ccccc4)C(=O)C3C2N=C1 (stereo not drawn) |  | Reduction [1]: >=95%
3 | 1.3 | CCCCN1C(=O)C2OC3(C)C=C(C)C=NC3C2C1=O (stereo not drawn) | >=95% | 
4 | 0.46 | CCN1C(=O)[C@@H]2[C@H](O[C@@]3(C)C=C(C)C=N[C@H]23)C1=O |  | Reduction [4]: >=95%
5 | 0.46 | CCN1C(=O)C2OC3(C)C=C(C)C=NC3C2C1=O (stereo not drawn) |  | Reduction [5]: >=95%
6 | 0.5 | CC1=CC2(C)OC3C(=O)N(C4CC4)C(=O)C3C2N=C1 (stereo not drawn) | >=95% | 
7 | 1.7 | CC1=CC2(C)OC3C(=O)N([C@@H](C)c4ccccc4)C(=O)C3C2N=C1 (stereo partly drawn) | >=95% | 
8 |  | COC(=O)Nc1nc2cc(C(=O)c3ccccc3)ccc2[nH]1 [MEBENDAZOLE] |  | Reduction [6]: >=95%
9 | 0.46 | CCN1C(=O)[C@H]2[C@@H](O[C@]3(C)C=C(C)C=N[C@@H]23)C1=O |  | Reduction [7]: 75%
10 |  | IVERMECTIN |  | Reduction [8]: > 95%
